For six compounds, IC50 results are on record in ChEMBL document CHEMBL1255271, “Determinants of in vitro drug susceptibility testing of Plasmodium vivax” (Antimicrob Agents Chemother, 2008).

Test [1] relates to Plasmodium vivax. The test can be described thus: Antimicrobial activity against Plasmodium vivax at the ring stage measured after 30 hrs by microscopy. The test is classed as functional, organism-based.
For test [2], the system named is Plasmodium vivax. The test is described as follows: Antimicrobial activity against Plasmodium vivax at the ring stage by microscopy. The test is classed as functional, organism-based.
Test [3] has as its system Plasmodium vivax. The test is described as follows: Antimicrobial activity against Plasmodium vivax at the trophozoites by microscopy treated during ring stage. The class given is functional, organism-based.
The test system of test [4] is Plasmodium vivax. The test is described as follows: Antimicrobial activity against Plasmodium vivax trophozoites by microscopy. The test is classed as functional, organism-based.
The test system of test [5] is Plasmodium falciparum. The test can be described thus: microbe, parasite or virus in culture.
Description: Antimicrobial activity against Plasmodium falciparum trophozoites by microscopy treated during ring stage
Test [6] relates to Plasmodium vivax. The test can be described thus: Antimicrobial activity against Plasmodium vivax at the ring stage measured within 30 hrs by microscopy. The class given is functional, organism-based.
Test [7] concerns Plasmodium vivax. The test can be described thus: Antimicrobial activity against Plasmodium vivax trophozoites measured after 30 hrs by microscopy. The class given is functional, organism-based.
The subject of test [8] is Plasmodium vivax. The test is described as follows: Antimicrobial activity against Plasmodium vivax trophozoites measured within 30 hrs by microscopy. The test is classed as functional, organism-based.
The test system of test [9] is Plasmodium vivax. The test is described as follows: Antimicrobial activity against fast-growing synchronous Plasmodium vivax by microscopy.
Test [10] has as its system Plasmodium vivax. The test can be described thus: Antimicrobial activity against slow-growing synchronous Plasmodium vivax by microscopy.
In test [11] the test system is Plasmodium falciparum. The test is described as follows: microbe, parasite or virus in culture. This is another data set of the same source.
Description: Antimicrobial activity against Plasmodium falciparum at the ring stage by microscopy

In general, IC50 refers to the midpoint of a concentration-inhibition curve. Consider `OC(c1cc(C(F)(F)F)nc2c(C(F)(F)F)cccc12)C1CCCCN1` (stereo not given) [MEFLOQUINE], for which the 50% inhibitory concentration (IC50) in the test on Plasmodium vivax [1] is 7.26 nM; in the test with Plasmodium vivax [2], 6.39 nM; with Plasmodium vivax [3] it was 12.5 nM; with Plasmodium vivax [4] it was 17 nM; in the test with Plasmodium falciparum [5] it was 4.6 nM; in the test with Plasmodium vivax [6], 22.2 nM. For the same compound, the values for the IC50 in the test on Plasmodium vivax [7] and in the test on Plasmodium vivax [8] were 7.27 nM and 17.4 nM, respectively.

As to `CCCCN(CCCC)CC(O)c1cc(Cl)cc2c1-c1ccc(Cl)cc1/C2=C/c1ccc(Cl)cc1` (stereo not given) [LUMEFANTRINE], the IC50 with Plasmodium vivax [1] amounted to 37.6 nM; with Plasmodium vivax [6], 24.8 nM; with Plasmodium vivax [7], 32.9 nM; with Plasmodium vivax [8], 14.6 nM.

Regarding `CCN(CC)CCCC(C)Nc1ccnc2cc(Cl)ccc12` (stereo not given) [CHLOROQUINE], the 50% inhibitory concentration (IC50) worked out at 59.8 nM in the test on Plasmodium vivax [1]; 55.2 nM in the test on Plasmodium vivax [2]; 2810 nM in the test on Plasmodium vivax [3]; 478 nM in the test on Plasmodium vivax [4]; 475 nM in the test with Plasmodium vivax [6]; 435 nM in the test on Plasmodium vivax [9]. Besides, the half-inhibitory concentration (IC50) in the test on Plasmodium vivax [10] came to 39.9 nM; in the test with Plasmodium vivax [7], 298 nM; in the test with Plasmodium vivax [8], 539 nM.

`C[C@H]1[C@H](OC(=O)CCC(=O)O)O[C@@H]2O[C@@]3(C)CC[C@H]4[C@H](C)CC[C@@H]1[C@@]24OO3` [ARTESUNATE]: the IC50 amounted to 0.83 nM in the test on Plasmodium vivax [1]; 0.86 nM in the test on Plasmodium vivax [2]; 1.61 nM in the test on Plasmodium vivax [4]; 1.39 nM in the test on Plasmodium vivax [6]; 1.2 nM in the test with Plasmodium vivax [7]; 1.6 nM in the test on Plasmodium vivax [8].

Turning to `CCN(CC)Cc1cc(Nc2ccnc3cc(Cl)ccc23)ccc1O`, the IC50 with Plasmodium vivax [1] amounted to 7.85 nM; in the test with Plasmodium vivax [2] it was 10 nM; in the test with Plasmodium falciparum [11] it was 15.2 nM; with Plasmodium vivax [3], 24.2 nM; with Plasmodium vivax [4], 22.1 nM; in the test with Plasmodium falciparum [5], 8.2 nM. The 50% inhibitory concentration (IC50) in the test with Plasmodium vivax [6] was found to be 23.4 nM; with Plasmodium vivax [7] it was 16.5 nM; with Plasmodium vivax [8], 18.9 nM.

Regarding `Clc1ccc2c(N3CCN(CCCN4CCN(c5ccnc6cc(Cl)ccc56)CC4)CC3)ccnc2c1` [PIPERAQUINE], the concentration for half-maximal inhibition (IC50) in the test on Plasmodium vivax [1] was 14.6 nM; with Plasmodium vivax [6], 31.2 nM; with Plasmodium vivax [7] it was 29.1 nM; in the test with Plasmodium vivax [8] it was 22.9 nM.
